In ChEMBL document CHEMBL1146957, “An efficient, asymmetric solid-phase synthesis of benzothiadiazine-substituted tetramic acids: potent inhibitors of the hepatitis C virus RNA-dependent RNA polymerase” (Bioorg Med Chem Lett, 2006):

Assays:
[1] = target: RNA-directed RNA polymerase (Hepacivirus hominis, UniProt O39930); test: Inhibition of HCV NS5B RNA dependent RNA polymerase
[2] = test system: Hepatitis C virus; test: Inhibition of HCV replication; type: functional, organism-based, Hepacivirus hominis

Sequence of RNA-directed RNA polymerase (O39930 whole entry): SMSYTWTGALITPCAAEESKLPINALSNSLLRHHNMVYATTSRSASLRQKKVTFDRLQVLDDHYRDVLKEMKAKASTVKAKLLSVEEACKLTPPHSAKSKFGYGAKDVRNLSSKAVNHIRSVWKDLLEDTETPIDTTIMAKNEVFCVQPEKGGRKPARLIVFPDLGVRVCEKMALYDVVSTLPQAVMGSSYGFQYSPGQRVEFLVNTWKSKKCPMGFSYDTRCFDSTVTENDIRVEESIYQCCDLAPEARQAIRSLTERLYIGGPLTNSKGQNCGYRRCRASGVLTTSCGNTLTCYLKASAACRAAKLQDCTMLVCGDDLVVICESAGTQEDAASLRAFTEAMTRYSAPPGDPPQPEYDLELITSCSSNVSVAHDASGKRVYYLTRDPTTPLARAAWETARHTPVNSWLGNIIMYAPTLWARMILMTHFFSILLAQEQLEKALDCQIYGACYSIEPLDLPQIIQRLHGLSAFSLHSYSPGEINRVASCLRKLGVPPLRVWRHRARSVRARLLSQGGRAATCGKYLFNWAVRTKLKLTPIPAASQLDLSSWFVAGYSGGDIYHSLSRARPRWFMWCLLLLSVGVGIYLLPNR

SMILES	IC50 [1]	IC50 [2]
CC(C)CCN1C(=O)C(C2=NS(=O)(=O)c3ccccc3N2)=C(O)[C@@H]1C(C)C	147 nM	159000 nM
CC(C)(C)[C@H]1C(O)=C(C2=NS(=O)(=O)c3ccccc3N2)C(=O)N1CCC1CC1	530 nM	–
CC(C)(C)CCN1C(=O)C(C2=NS(=O)(=O)c3ccccc3N2)=C(O)[C@@H]1c1ccc(F)cc1	> 748 nM	–
CC(C)CCn1c(=O)c(C2=NS(=O)(=O)c3ccccc3N2)c(O)c2ccccc21	200 nM	269000 nM
CC(C)(C)CCN1C(=O)C(C2=NS(=O)(=O)c3ccccc3N2)=C(O)[C@@H]1C1CCCCC1	486 nM	–
O=C1C(C2=NS(=O)(=O)c3ccccc3N2)=C(O)[C@H](Cc2cccnc2)N1Cc1ccc(F)cc1	2470 nM	–
CC(C)(C)[C@H]1C(O)=C(C2=NS(=O)(=O)c3ccccc3N2)C(=O)N1Cc1ccccn1	> 100000 nM	–
CC(C)CCN1C(=O)C(C2=NS(=O)(=O)c3ccccc3N2)=C(O)[C@@H]1Cc1ccccc1	3570 nM	> 60000 nM

Compounds with a lower IC50 [1], results first:

IC50 [1]	IC50 [2]	SMILES
1.7 nM	–	CC(C)(C)CCN1C(=O)C(C2=NS(=O)(=O)c3ccccc3N2)=C(O)[C@@H]1C(C)(C)C
59 nM	–	CC(C)(C)[C@H]1C(O)=C(C2=NS(=O)(=O)c3ccccc3N2)C(=O)N1Cc1ccc(F)cc1
88 nM	37000 nM	CCC(C)[C@H]1C(O)=C(C2=NS(=O)(=O)c3ccccc3N2)C(=O)N1Cc1ccccc1 (some centres undefined)
22 nM	13000 nM	CC(C)(C)[C@H]1C(O)=C(C2=NS(=O)(=O)c3ccccc3N2)C(=O)N1Cc1ccccc1
18 nM	8000 nM	CC(C)CCN1C(=O)C(C2=NS(=O)(=O)c3ccccc3N2)=C(O)[C@@H]1C(C)(C)C
